# Counter-ions that a name gives are not always drawn. Like-named read-outs stand apart in the source and are kept apart here.
# Legend:
# [1] = tested on: fibrin-induced microglia activation; assay: Image-based assay of fibrin-induced microglia activation (HTS and dose response); type: cell-based, rat; conditions: for inhibition at 10 µM: Rattus norvegicus, Microglia, read-out: Fibrin % inhibition
# [2] = tested on: LPS-induced microglia activation; assay: Image-based assay of LPS-induced microglia activation (HTS and dose response); type: cell-based, rat; conditions: for inhibition at 10 µM: Rattus norvegicus, Microglia, read-out: LPS % inhibition
# [3] = tested on: fibrin- and LPS-induced microglia activation; assay: cells; type: cell-based, rat
# [4] = tested on: primary rat microglia; assay: Cell toxicity (dead cells, size <150 μm2) in LPS assay
# [5] = tested on: primary rat microglia; assay: Cell toxicity (dead cells, size <150 μm2) in coated fibrin (cFib) assay;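 further: share of dead cells sized under 150 µm2 at 10 µM in fibrin-stimulated microglia HTS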
# [6] = primary microglia HTS, fibrin stimulation, activation = cell size >800 μm2
# [7] = 48 h, primary microglia HTS, LPS stimulation, activation = cell size >800 μm2
# [8] = quadrant by fibrin and LPS inhibition in HTS of 1907 compounds
# [9] = primary microglia HTS, LPS stimulation, toxicity = cell size <150 μm2
# [10] = primary microglia HTS, fibrin stimulation, toxicity = cell size <150 μm2
# [11] = primary HTS, 10 μM, fibrin-stimulated primary microglia
# [12] = primary HTS, 10 μM, LPS-stimulated primary microglia
# [13] = primary HTS, 10 μM, LPS assay, dead cells size <150 μm2
# [14] = primary HTS, 10 μM, fibrin assay, dead cells size <150 μm2
# [15] = primary microglia HTS, fibrin stimulation, increased cell size (>800 μm^2) as marker of activation
# [16] = 48 h, primary microglia HTS, LPS stimulation, increased cell size (>800 μm^2) as marker of activation
# [17] = primary microglia HTS, LPS stimulation, decreased size (<150 μm^2) as marker of toxicity
# [18] = primary microglia HTS, fibrin stimulation, decreased size (<150 μm^2) as marker of toxicity
# [19] = primary microglia HTS, 10 μM, fibrin-stimulated, cell size >800 μm^2 as marker of activation
# [20] = primary microglia HTS, 10 μM, LPS-stimulated, cell size >800 μm^2 as marker of activation
# [21] = HTS of 1907 compounds, quadrant by fibrin and LPS inhibition
# [22] = primary microglia HTS, 10 μM, LPS assay, cell size <150 μm^2 as marker of toxicity
# [23] = primary microglia HTS, 10 μM, fibrin assay, cell size <150 μm^2 as marker of toxicity
smiles,measurement,setting,value
N=C1NC(=O)N2CC12 (stereo not shown) [Imexon],inhibition at 10 µM,[1]; [6],-3%
same,inhibition at 10 µM,[2]; [7],12%
same,Quadrant (FIG. 5b),[3]; [8],Q4
same,LPS % cell toxicity,[4]; [9],1%
same,Fibrin % cell toxicity,[5]; [10],1%
COCC1=C(C(=O)OC(C)OC(=O)OC(C)C)N2C(=O)[C@@H](NC(=O)/C(=N\OC)c3csc(N)n3)[C@H]2SC1 (stereo partly shown) [Cefpodoxime Proxetil],inhibition at 10 µM,[1]; [11],-39%
same,inhibition at 10 µM,[2]; [12],12%
same,Quadrant (FIG. 5b),"[3]; primary HTS, 10 μM",Q4
same,LPS % cell toxicity,[4]; [13],0%
same,Fibrin % cell toxicity,[5]; [14],0%
Cc1cc(C(C#N)c2ccc(Cl)cc2)c(Cl)cc1NC(=O)c1cc(I)cc(I)c1O (stereo not shown) [Closantel],inhibition at 10 µM,[1]; [11],-9%
same,inhibition at 10 µM,[2]; [12],5%
same,Quadrant (FIG. 5b),"[3]; primary HTS, 10 μM",Q4
same,LPS % cell toxicity,[4]; [13],0%
same,Fibrin % cell toxicity,[5]; [14],0%
COc1cccc(OC)c1C(=O)N[C@@H]1C(=O)N2[C@@H]1SC(C)(C)[C@@H]2C(=O)O [Meticillin],inhibition at 10 µM,[1]; [15],-19%
same,inhibition at 10 µM,[2]; [16],18%
same,Quadrant (FIG. 5b),[3]; [8],Q4
same,LPS % cell toxicity,[4]; [17],0%
same,Fibrin % cell toxicity,[5]; [18],0%
C=C1/C(=C\C=C2/CCC[C@]3(C)[C@@H]([C@H](C)CCCC(C)(C)O)CC[C@@H]23)C[C@@H](O)C[C@@H]1O [Calcitriol],inhibition at 10 µM,[1]; [11],-46%
same,inhibition at 10 µM,[2]; [12],0%
same,Quadrant (FIG. 5b),"[3]; primary HTS, 10 μM",Q4
same,LPS % cell toxicity,[4]; [13],1%
same,Fibrin % cell toxicity,[5]; [14],0%
CC(=O)O[C@H]1C[C@H](O[C@H]2[C@@H](O)C[C@H](O[C@H]3[C@@H](O)C[C@H](O[C@H]4CC[C@@]5(C)[C@H](CC[C@@H]6[C@@H]5C[C@@H](O)[C@]5(C)[C@@H](C7=CC(=O)OC7)CC[C@]65O)C4)O[C@@H]3C)O[C@@H]2C)O[C@H](C)[C@H]1O[C@@H]1O[C@H](CO)[C@@H](O)[C@H](O)[C@H]1O [Lanatoside C],Fibrin % inhibition,[1]; [6],17%
same,LPS % inhibition,"[2]; primary microglia HTS, LPS stimulation, activation = cell size >800 μm2",35%
same,Quadrant (FIG. 5b),[3]; [8],Q4
same,LPS % cell toxicity,[4]; [9],1%
same,Fibrin % cell toxicity,[5]; [10],1%
CN1CCN(C(=O)OC2c3nccnc3C(=O)N2c2ccc(Cl)cn2)CC1 (stereo not shown) [Zopiclone],inhibition at 10 µM,[1]; [19],11%
same,inhibition at 10 µM,[2]; [20],5%
same,Quadrant (FIG. 5b),[3]; [21],Q4
same,LPS % cell toxicity,[4]; [22],0%
same,Fibrin % cell toxicity,[5]; [23],1%
COc1cc(C(=O)NCc2ccc(OCCN(C)C)cc2)cc(OC)c1OC [Trimethobenzamide],inhibition at 10 µM,[1]; [19],16%
same,inhibition at 10 µM,[2]; [20],17%
same,Quadrant (FIG. 5b),[3]; [21],Q4
same,LPS % cell toxicity,[4]; [22],0%
same,Fibrin % cell toxicity,[5]; [23],1%
CC(COc1ccccc1)NC(C)C(O)c1ccc(O)cc1 (stereo not shown) [Isoxsuprine Hydrochloride],inhibition at 10 µM,[1]; [6],-13%
same,inhibition at 10 µM,[2]; [7],23%
same,Quadrant (FIG. 5b),[3]; [8],Q4
same,LPS % cell toxicity,[4]; [9],0%
same,Fibrin % cell toxicity,[5]; [10],0%
O=C(O)c1ccc[n+]([O-])c1 [Oxiniacic Acid],inhibition at 10 µM,[1]; [15],-6%
same,inhibition at 10 µM,[2]; [16],12%
same,Quadrant (FIG. 5b),[3]; [8],Q4
same,LPS % cell toxicity,[4]; [17],0%
same,Fibrin % cell toxicity,[5]; [18],1%
NS(=O)(=O)c1cc2c(cc1Cl)NCNS2(=O)=O [Hydrochlorothiazide],inhibition at 10 µM,[1]; [6],-29%
same,inhibition at 10 µM,[2]; [7],21%
same,Quadrant (FIG. 5b),[3]; [8],Q4
same,LPS % cell toxicity,[4]; [9],0%
same,Fibrin % cell toxicity,[5]; [10],0%
CC/C=C\C/C=C\C/C=C\C/C=C\C/C=C\CCCC(=O)OCC [Icosapent ethyl],inhibition at 10 µM,[1]; [6],-13%
same,inhibition at 10 µM,[2]; [7],1%
same,Quadrant (FIG. 5b),[3]; [8],Q4
same,LPS % cell toxicity,[4]; [9],0%
same,Fibrin % cell toxicity,[5]; [10],0%
CCCC(=O)Nc1ncnc2c1ncn2[C@@H]1O[C@@H]2COP(=O)(O)O[C@H]2[C@H]1OC(=O)CCC [Bucladesine],inhibition at 10 µM,[1]; [11],10%
same,inhibition at 10 µM,[2]; [12],24%
same,Quadrant (FIG. 5b),"[3]; primary HTS, 10 μM",Q4
same,LPS % cell toxicity,[4]; [13],0%
same,Fibrin % cell toxicity,[5]; [14],1%
O=C(N/N=C/c1ccc([N+](=O)[O-])o1)c1cc([N+](=O)[O-])cc([N+](=O)[O-])c1O [Nifursol],inhibition at 10 µM,[1]; [15],47%
same,inhibition at 10 µM,[2]; [16],20%
same,Quadrant (FIG. 5b),[3]; [8],Q4
same,LPS % cell toxicity,[4]; [17],0%
same,Fibrin % cell toxicity,[5]; [18],1%

# From patent publication US20210330611A1, “THERAPY FOR NEUROLOGICAL DISEASES/DISORDERS” (priority 2020, published 2021)
